# Data from patent publication US11407760B2, “Dioxinoquinoline compounds, preparation method and uses thereof” (BEIJING SCITECH-MQ PHARMACEUTICALS LIMITED, priority 2018, dated 2022).
# Tests used:
# c-MET kinase = c-MET kinase (Homo sapiens (Human), UniProt P08581); test: Assay of small molecular compounds for inhibiting the activity of c-MET kinase (LANCE TR-FRET); assay type: biochemical; conditions: c-MET tyrosine kinase, 60 min reaction
# Protocol: Biological Example 1. Assay of Small Molecular Compounds for Inhibiting the Activity of c-MET Kinase
# (§1) The assay is based on the LANCE TR-FRET technology of Perkin Elmer Inc., and the assay method is as follows:
# (§2) 1. Dilution of compounds: a total of 11 concentrations were obtained using a 3-fold gradient dilution from the highest concentration of 2500 nM (the maximum final concentration of the drug used in this assay was 2500 nM, and the minimum final concentration was 0.042 nM).
# (§3) 2. 2.5 μL of the gradient-diluted compounds were taken with a transfer pipette to a 384-well plate.
# 3. Addition of enzyme: 5 μL of 2× c-MET kinase solution (concentration was 2 nM) was taken with a transfer pipette to the corresponding reaction well of the 384-well plate, mixed well and pre-reacted at room temperature for 5 minutes.
# 4. 2.5 μL 4× Ultra ULight™-JAK-1 (Tyr1023) Peptide (concentration was 400 nM)/ATP (concentration was 40 μM) mixture was taken with a transfer pipette to the corresponding reaction well of the 384-well plate.
# (§4) 5. Negative control: 2.5 μL/well 4× substrate/ATP mixture and 7.5 μL 1× Kinase Assay Buffer were added to the wells of the 384-well plate.
# 6. Positive control: 2.5 μL/well 4× substrate/ATP mixture, 2.5 μL/well 1× Kinase Assay Buffer containing 16% DMSO, and 5 µL/well 2× c-MET kinase solution were added to the 384-well plate. The final concentration of DMSO in the reaction system was 4%.
# (§5) 7. The mixture was mixed well and then centrifuged and reacted at room temperature in dark for 60 min.
# (§6) 8. Termination of the enzymatic reaction: 5 μL of 4× stop solution was taken with a transfer pipette to the wells of the 384-well plate, mixed and then centrifuged, and reacted at room temperature for 5 min.
# (§7) 9. Development of the reaction: 5 μL of 4× detection solution was taken with a transfer pipette to the wells of the 384-well plate for color development, and the mixture was mixed and then centrifuged and reacted at room temperature for 60 min.
# (§8) 10. The 384-well plate was placed into the Envision plate reader and the signal was detected using the appropriate program.
# 11. […]
# VEGFR-2 kinase = VEGFR-2 kinase (Homo sapiens (Human), UniProt P35968); test: Assay of small molecular compounds for inhibiting the activity of VEGFR-2 kinase (LANCE TR-FRET); assay type: biochemical; conditions: VEGFR-2 tyrosine kinase, 60 min reaction
# Chain of VEGFR-2 kinase (P35968 20-1356): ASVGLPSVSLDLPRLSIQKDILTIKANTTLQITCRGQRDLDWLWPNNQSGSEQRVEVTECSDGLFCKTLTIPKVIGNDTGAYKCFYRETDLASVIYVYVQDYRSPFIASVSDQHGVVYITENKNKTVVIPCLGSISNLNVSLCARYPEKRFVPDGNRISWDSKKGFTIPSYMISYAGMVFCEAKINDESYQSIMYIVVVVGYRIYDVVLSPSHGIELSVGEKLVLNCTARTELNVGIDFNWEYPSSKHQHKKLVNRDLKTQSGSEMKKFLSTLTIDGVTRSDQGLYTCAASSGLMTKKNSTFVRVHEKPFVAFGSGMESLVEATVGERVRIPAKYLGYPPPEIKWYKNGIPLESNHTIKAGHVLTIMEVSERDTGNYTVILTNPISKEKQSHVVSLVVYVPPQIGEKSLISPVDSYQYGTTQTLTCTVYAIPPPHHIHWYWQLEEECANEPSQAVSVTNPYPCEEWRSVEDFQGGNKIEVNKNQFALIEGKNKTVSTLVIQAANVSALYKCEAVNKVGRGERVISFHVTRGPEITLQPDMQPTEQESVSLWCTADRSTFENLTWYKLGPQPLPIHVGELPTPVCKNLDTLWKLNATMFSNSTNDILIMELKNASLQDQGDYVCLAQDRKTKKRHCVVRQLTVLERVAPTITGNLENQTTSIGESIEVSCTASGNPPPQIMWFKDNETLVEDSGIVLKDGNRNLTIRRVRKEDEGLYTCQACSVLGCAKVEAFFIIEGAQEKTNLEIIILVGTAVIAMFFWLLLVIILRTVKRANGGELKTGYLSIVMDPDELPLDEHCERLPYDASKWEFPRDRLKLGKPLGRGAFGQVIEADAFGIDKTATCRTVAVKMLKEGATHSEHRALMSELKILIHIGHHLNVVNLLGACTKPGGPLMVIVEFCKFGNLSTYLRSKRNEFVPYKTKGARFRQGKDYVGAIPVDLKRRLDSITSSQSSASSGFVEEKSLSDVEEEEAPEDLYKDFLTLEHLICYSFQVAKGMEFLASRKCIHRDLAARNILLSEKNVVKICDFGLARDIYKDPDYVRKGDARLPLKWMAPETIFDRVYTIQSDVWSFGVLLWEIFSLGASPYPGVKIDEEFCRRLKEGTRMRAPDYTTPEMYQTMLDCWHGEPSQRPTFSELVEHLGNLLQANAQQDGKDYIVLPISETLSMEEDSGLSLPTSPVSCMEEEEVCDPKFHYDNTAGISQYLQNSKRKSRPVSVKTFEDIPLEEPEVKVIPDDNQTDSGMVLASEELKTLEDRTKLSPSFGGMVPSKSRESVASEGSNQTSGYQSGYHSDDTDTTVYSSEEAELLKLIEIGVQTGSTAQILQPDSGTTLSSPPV
# Protocol: Biological Example 2. Assay of Small Molecular Compounds for Inhibiting the Activity of VEGFR-2 Kinase
# as §1, §2, §3
# 3. Addition of enzyme: 5 μL of 2× VEGFR-2 kinase solution (concentration was 0.5 nM) was taken with a transfer pipette to the corresponding reaction well of the 384-well plate, mixed well and pre-reacted at room temperature for 30 minutes.
# 4. 2.5 μL 4× Ultra ULight™-JAK-1 (Tyr1023) Peptide (concentration was 200 nM)/ATP (concentration was 40 μM) mixture was taken with a transfer pipette to the corresponding reaction well of the 384-well plate.
# as §4
# 6. Positive control: 2.5 μL/well 4× substrate/ATP mixture, 2.5 μL/well 1× Kinase Assay Buffer containing 16% DMSO, and 5 μL/well 2× VEGFR-2 kinase solution were added to the 384-well plate. The final concentration of DMSO in the reaction system was 4%.
# as §5, §6, §7, §8
# 11. Analysis and processing of the raw data:
# The drug concentrations and the corresponding inhibition rates were input into GraphPad Prism5 for calculation, and the inhibition rate of the compounds were calculated as follows: inhibition rate (%)=(reading of positive well−reading of experimental well)/(reading of positive control well−reading of negative control well)×100%. Processing with GraphPad Prism5 software yielded the corresponding IC50 values (the concentration of the compound at which 50% of the highest inhibition of the enzyme is achieved).
# MHCC97H cells = test: Inhibitory activity on the proliferation of MHCC97H cells (CCK-8); assay type: cell-based; conditions: Homo sapiens, MHCC97H cell proliferation, 72 hours of incubation
# Protocol: Biological Example 3. Assay of the Inhibitory Activity of Small Molecular Compounds on the Proliferation of MHCC97H Cells
# The specific steps of the assay are as follows:
# 1. Dilution of compounds: a total of 9 concentrations were obtained using a 3-fold gradient dilution from the highest concentration of 5000 nM (the maximum final concentration of the drug used in this assay was 5000 nM, and the minimum final concentration was 0.76 nM).
# 2. MHCC97H cells were collected, then transferred to a 15 mL centrifuge tube, and centrifuged at 1000 rpm for 5 minutes.
# 3. The supernatant was discarded, and the complete medium was added and pipetted evenly, 10 μL of cell suspension was taken out and mixed evenly with 10 μL of 0.4% trypan blue, the counting was carried out with a cell counter, and the number and survival rate of cells were recorded;
# 4. The cell suspension was seeded into a 96-well plate at 5000 cells/80 μL per well;
# 5. 20 μL of the corresponding 5× compound solution diluted with the medium mentioned above was added to each well and mixed evenly;
# 6. After 72 hours of incubation, 10 μL of CCK-8 reagent was added to each well and incubated for another 2 hours (the reaction time can be adjusted according to the color depth);
# 7. The OD value was read at 450 nm on a multi-function plate reader.
# 8. Data processing: cell survival rate (%)=[(As−Ab)/(Ac−Ab)]*100%
# As: OD value of assay well (medium containing cells, CCK-8, compound),
# Ac: OD value of control well (medium containing cells, CCK-8),
# Ab: OD value of blank well (CCK-8, medium without cell and compound),
# The values were then imported into Graphpad Prism5 software for curve fitting, and IC50 was calculated.
# Table 3 lists the assay results of the inhibitory activity of some compounds disclosed herein on the proliferation of the MHCC97H cell line.
# Chain of c-MET kinase (P08581 25-1390): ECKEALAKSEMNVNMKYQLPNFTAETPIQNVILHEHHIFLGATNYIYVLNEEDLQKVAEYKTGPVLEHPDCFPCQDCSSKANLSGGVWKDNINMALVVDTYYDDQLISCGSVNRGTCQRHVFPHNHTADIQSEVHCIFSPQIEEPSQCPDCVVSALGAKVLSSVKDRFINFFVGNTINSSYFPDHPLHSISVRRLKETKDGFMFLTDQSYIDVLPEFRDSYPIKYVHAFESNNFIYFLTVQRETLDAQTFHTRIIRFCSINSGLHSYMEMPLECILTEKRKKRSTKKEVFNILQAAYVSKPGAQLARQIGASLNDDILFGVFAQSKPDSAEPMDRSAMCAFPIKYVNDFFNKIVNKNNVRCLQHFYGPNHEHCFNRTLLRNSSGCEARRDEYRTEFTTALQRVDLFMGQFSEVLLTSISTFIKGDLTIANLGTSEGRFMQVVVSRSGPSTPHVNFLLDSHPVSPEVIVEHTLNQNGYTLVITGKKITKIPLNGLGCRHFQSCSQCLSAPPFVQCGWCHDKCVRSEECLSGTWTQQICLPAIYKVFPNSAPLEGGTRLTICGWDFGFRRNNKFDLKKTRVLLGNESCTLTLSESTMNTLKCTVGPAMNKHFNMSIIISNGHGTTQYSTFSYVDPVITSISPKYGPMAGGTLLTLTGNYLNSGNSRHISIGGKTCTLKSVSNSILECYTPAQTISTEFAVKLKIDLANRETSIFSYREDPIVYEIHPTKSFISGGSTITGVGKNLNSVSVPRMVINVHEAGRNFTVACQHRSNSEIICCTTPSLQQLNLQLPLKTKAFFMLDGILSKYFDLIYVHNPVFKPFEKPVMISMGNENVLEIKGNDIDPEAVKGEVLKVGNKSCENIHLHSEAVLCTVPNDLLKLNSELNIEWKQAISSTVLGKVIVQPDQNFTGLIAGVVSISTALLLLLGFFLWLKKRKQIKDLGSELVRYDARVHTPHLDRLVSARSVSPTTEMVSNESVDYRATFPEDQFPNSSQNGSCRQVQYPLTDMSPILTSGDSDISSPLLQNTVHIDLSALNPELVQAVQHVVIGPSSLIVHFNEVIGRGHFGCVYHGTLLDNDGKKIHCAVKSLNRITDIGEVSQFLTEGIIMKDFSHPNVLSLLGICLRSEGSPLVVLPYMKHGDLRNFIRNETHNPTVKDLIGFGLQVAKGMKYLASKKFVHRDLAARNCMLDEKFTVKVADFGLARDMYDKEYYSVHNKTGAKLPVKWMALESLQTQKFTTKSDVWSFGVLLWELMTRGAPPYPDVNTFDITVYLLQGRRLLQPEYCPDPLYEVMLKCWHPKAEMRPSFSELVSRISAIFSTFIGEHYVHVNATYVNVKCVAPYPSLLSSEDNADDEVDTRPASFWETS
IC50 (c-MET kinase) [µM],IC50 (VEGFR-2 kinase) [µM],Structure (SMILES),IC50 (MHCC97H cells) [µM]
0.05 to 0.5,,"O=C(Nc1ccc(F)cc1)C1(C(=O)Nc2ccc(Oc3ccnc4cc(OCC5CC5)c5c(c34)OCCO5)c(F)c2)CC1 [Example 11, N-(4-((5-(cyclopropylmethoxy)-2,3-dihydro-[1,4]dioxino[2,3-f]quinolin-10-yl)oxy)-3-fluorophenyl)-N-(4-fluorophenyl)cyclopropan-1,1-dicarboxamide]",
0.05 to 0.5,,"CC(C)COc1cc2nccc(Oc3ccc(NC(=O)C4(C(=O)Nc5ccc(F)cc5)CC4)cc3F)c2c2c1OCCO2 [Example 12, N-(4-((5-(isobutyloxy)-2,3-dihydro-[1,4]dioxino[2,3-f]quinolin-10-yl)oxy)-3-fluorophenyl)-N-(4-fluorophenyl)cyclopropan-1,1-dicarboxamide]",
,0.05 to 0.5,"O=C(Nc1ccc(F)cc1)C1(C(=O)Nc2ccc(Oc3ccnc4cc(OC5CCOCC5)c5c(c34)OCCO5)c(F)c2)CC1 [Example 18, N-(3-fluoro-4-((5-((tetrahydropyran-4-yl)oxy)-2,3-dihydro-[1,4]dioxino[2,3-f]quinolin-10-yl)oxy)phenyl)-N-(4-fluorophenyl)cyclopropan-1,1-dicarboxamide]",
≤ 0.05,≤ 0.05,CC(=O)N1CCN(CCCOc2cc3nccc(Oc4ccc(NC(=O)C5(C(=O)Nc6ccc(F)cc6)CC5)cc4F)c3c3c2OCCO3)CC1 [Example 19],< 0.05
,0.05 to 0.5,"N#CCOc1cc2nccc(Oc3ccc(NC(=O)C4(C(=O)Nc5ccc(F)cc5)CC4)cc3F)c2c2c1OCCO2 [Example 20, N-(4-((5-(cyanomethoxy)-2,3-dihydro-[1,4]dioxino[2,3-f]quinolin-10-yl)oxy)-3-fluorophenyl)-N-(4-fluorophenyl)cyclopropan-1,1-dicarboxamide]",< 0.05
,,"N#CCCCOc1cc2nccc(Oc3ccc(NC(=O)C4(C(=O)Nc5ccc(F)cc5)CC4)cc3F)c2c2c1OCCO2 [Example 26, N-(3-fluoro-4-((5-(3-cyanopropoxy)-2,3-dihydro-[1,4]dioxino[2,3-f]quinolin-10-yl)oxy)phenyl)-N-(4-fluorophenyl)cyclopropan-1,1-dicarboxamide]",< 0.05
,,"CN(C)CCCCCCOc1cc2nccc(Oc3ccc(NC(=O)C4(C(=O)Nc5ccc(F)cc5)CC4)cc3F)c2c2c1OCCO2 [Example 27, N-(4-((5-((6-(dimethylamino)hexyl)oxy)-2,3-dihydro-[1,4]dioxino[2,3-f]quinolin-10-yl)oxy)-3-fluorophenyl)-N-(4-fluorophenyl)cyclopropan-1,1-dicarboxamide]",< 0.05
,,"O=C(Nc1ccc(F)cc1)C1(C(=O)Nc2ccc(Oc3ccnc4cc(OC5COC5)c5c(c34)OCCO5)c(F)c2)CC1 [Example 28, N-(3-fluoro-4-((5-(oxetan-3-yloxy)-2,3-dihydro-[1,4]dioxino[2,3-f]quinolin-10-yl)oxy)phenyl)-N-(4-fluorophenyl)cyclopropan-1,1-dicarboxamide]",< 0.05
,,"CC1(C)CCN(CCCOc2cc3nccc(Oc4ccc(NC(=O)C5(C(=O)Nc6ccc(F)cc6)CC5)cc4F)c3c3c2OCCO3)CC1 [Example 29, N-(3-fluoro-4-((5-(3-(4,4-dimethylpiperidin-1-yl)propoxy)-2,3-dihydro-[1,4]dioxino[2,3-f]quinolin-10-yl)oxy)phenyl)-N-(4-fluorophenyl)cyclopropan-1,1-dicarboxamide]",< 0.05
,,"CC1(N)CCN(CCCOc2cc3nccc(Oc4ccc(NC(=O)C5(C(=O)Nc6ccc(F)cc6)CC5)cc4F)c3c3c2OCCO3)CC1 [Example 30, N-(3-fluoro-4-((5-(3-(4-amino-4-methylpiperidin-1-yl)propoxy)-2,3-dihydro-[1,4]dioxino[2,3-f]quinolin-10-yl)oxy)phenyl)-N-(4-fluorophenyl)cyclopropan-1,1-dicarboxamide]",< 0.5
,,"O=C(Nc1ccc(F)cc1)C1(C(=O)Nc2ccc(Oc3ccnc4cc(OCCO)c5c(c34)OCCO5)c(F)c2)CC1 [Example 32, N-(3-fluoro-4-((5-(2-hydroxyethoxy)-2,3-dihydro-[1,4]dioxino[2,3-f]quinolin-10-yl)oxy)phenyl)-N-(4-fluorophenyl)cyclopropan-1,1-dicarboxamide]",< 0.05
,,"NC1(COc2cc3nccc(Oc4ccc(NC(=O)C5(C(=O)Nc6ccc(F)cc6)CC5)cc4F)c3c3c2OCCO3)CC1 [Example 33, N-(4-((5-((1-aminocyclopropyl)methoxy)-2,3-dihydro-[1,4]dioxino[2,3-f]quinolin-10-yl)oxy)-3-fluorophenyl)-N-(4-fluorophenyl)cyclopropan-1,1-dicarboxamide]",< 0.05
,,"COc1cc2nccc(Oc3cc(Cl)c(NC(=O)C4(C(=O)Nc5ccc(F)cc5)CC4)cc3F)c2c2c1OCCO2 [Example 35, N-(2-chloro-5-fluoro-4-((5-methoxy-2,3-dihydro-[1,4]dioxino[2,3-f]quinolin-10-yl)oxy)phenyl)-N-(4-fluorophenyl)cyclopropan-1,1-dicarboxamide]",< 0.05
,0.05 to 0.5,"O=C(Nc1ccc(F)cc1)C1(C(=O)Nc2ccc(Oc3ccnc4cc(OCCCN5CCOCC5)c5c(c34)OCCO5)cc2Cl)CC1 [Example 36, N-(2-chloro-4-((5-(3-morpholinopropoxy)-2,3-dihydro-[1,4]dioxino[2,3-f]quinolin-10-yl)oxy)phenyl)-N-(4-fluorophenyl)cyclopropan-1,1-dicarboxamide]",< 0.05
